Source: patent publication US11076595B2, “1-(n,n-disubstituted carbamoyl) 4-(substituted sulfonyl)triazolin-5-one derivative, 4-(n,n-disubstituted carbamoyl) 1-(substituted sulfonyl)triazolin-5-one derivative, and herbicide containing said derivative as active ingredient” (HOKKO CHEMICAL INDUSTRY CO., LTD., priority 2017, dated 2021)

What was measured:
Assay type in all cases: in vivo
Echinochloa crus-galli [1] = experiment: Test Example 1: herbicidal effect test by soil treatment in paddy field; conditions: 120 g/10a, paddy soil treatment just after sowing, 14 days after treatment
Method in brief: (§1)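 Flooded paddy-soil pots (1/10000 are, N:P:K 17:17:17 fertilizer, puddled) were sown with 30 seeds per species at 0–1 cm, water kept ~3 cm in a greenhouse. Emulsifiable concentrate diluted in water was dripped in right after sowing at 120 g a.i. per 10 are. Suppression (%) came from dry weight vs untreated at 14 days.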

Lindernia pyxidaria [2] = experiment: as above; conditions: 120 g/10a, paddy soil treatment just after sowing, 14 days after treatment
Method in brief: as §1

Monochoria vaginalis [3] = experiment: as above; conditions: 120 g/10a, paddy soil treatment just after sowing, 14 days after treatment
Method in brief: as §1

Scirpus juncoides [4] = experiment: as above; conditions: 120 g/10a, paddy soil treatment just after sowing, 14 days after treatment
Method in brief: as §1

Echinochloa crus-galli [5] = experiment: Test Example 2: herbicidal effect test by treatment during growing period in paddy field; conditions: treatment 7 days after sowing, 120 g/10a, evaluated 14 days after treatment
Method in brief: (§2)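 Paddy soil in flooded pots (~3 cm water), 30 seeds per species sown 0–1 cm deep, greenhouse. Emulsifiable concentrate diluted in water and dripped into the water 7 days after sowing at 120 g a.i. per 10 are. Suppression (%) from dry weight vs untreated, 14 days post-treatment, two replicates.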

Lindernia pyxidaria [6] = experiment: as above; conditions: treatment 7 days after sowing, 120 g/10a, evaluated 14 days after treatment
Method in brief: as §2

Monochoria vaginalis [7] = experiment: as above; conditions: treatment 7 days after sowing, 120 g/10a, evaluated 14 days after treatment
Method in brief: as §2

Scirpus juncoides [8] = experiment: as above; conditions: treatment 7 days after sowing, 120 g/10a, evaluated 14 days after treatment
Method in brief: as §2

Amaranthus viridis [9] = experiment: Test Example 3: herbicidal effect test by soil treatment in upland field; conditions: upland field soil treatment 1 day after sowing; 120 g/10a; evaluated 14 days after treatment
Method in brief: (§3)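 Pots of alluvial field soil sown with 20 seeds per weed species; one day later emulsifiable concentrate diluted in water and sprayed on soil surface at 100 L per 10 are, 120 g active ingredient per 10 are. Suppression rate (%) from dry weight versus untreated plots after 14 days, two replicates.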

Chenopodium album [10] = experiment: as above; conditions: upland field soil treatment 1 day after sowing; 120 g/10a; evaluated 14 days after treatment
Method in brief: as §3

Echinochloa crus-galli [11] = experiment: as above; conditions: upland field soil treatment 1 day after sowing; 120 g/10a; evaluated 14 days after treatment
Method in brief: as §3

crabgrass [12] = experiment: as above; conditions: upland field soil treatment 1 day after sowing; 120 g/10a; evaluated 14 days after treatment
Method in brief: as §3

Amaranthus viridis [13] = experiment: Test Example 4: herbicidal effect test by foliage treatment in upland field; conditions: upland field foliage treatment 7 days after sowing; 120 g/10a; evaluated 14 days after treatment
Method in brief: (§4)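 Application of 120 g active ingredient per 10 are, as a water-diluted emulsifiable concentrate sprayed 7 days after sowing into alluvial soil. Effect is expressed as percent dry-weight reduction versus untreated plots at day 14, duplicate plots.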

Chenopodium album [14] = experiment: as above; conditions: upland field foliage treatment 7 days after sowing; 120 g/10a; evaluated 14 days after treatment
Method in brief: as §4

Echinochloa crus-galli [15] = experiment: as above; conditions: upland field foliage treatment 7 days after sowing; 120 g/10a; evaluated 14 days after treatment
Method in brief: as §4

crabgrass [16] = experiment: as above; conditions: upland field foliage treatment 7 days after sowing; 120 g/10a; evaluated 14 days after treatment
Method in brief: as §4

C=CS(=O)(=O)n1cnn(C(=O)N(c2ccc(F)cc2F)C(C)C)c1=O [Compound 1-142]
100%: weed suppression rate, Echinochloa crus-galli (Echinochloa crus-galli [1]) | weed suppression rate, Lindemia pyxidaria (Lindernia pyxidaria [2]) | weed suppression rate, Monochoria vaginalis (Monochoria vaginalis [3]) | weed suppression rate, Scirpus juncoides (Scirpus juncoides [4]) | herbicidal effect (weed suppression rate), Amaranthus viridis (Amaranthus viridis [9]) | herbicidal effect (weed suppression rate), Chenopodium album (Chenopodium album [10]) | herbicidal effect (weed suppression rate), Echinochloa crus-galli (Echinochloa crus-galli [11]) | herbicidal effect (weed suppression rate), Crabgrass (crabgrass [12])
90%: weed suppression rate, Echinochloa crus-galli (Echinochloa crus-galli [5]) | weed suppression rate, Scirpus juncoides (Scirpus juncoides [8]) | herbicidal effect (weed suppression rate), Amaranthus viridis (Amaranthus viridis [13]) | herbicidal effect (weed suppression rate), Crabgrass (crabgrass [16])
80%: weed suppression rate, Lindemia pyxidaria (Lindernia pyxidaria [6]) | weed suppression rate, Monochoria vaginalis (Monochoria vaginalis [7]) | herbicidal effect (weed suppression rate), Chenopodium album (Chenopodium album [14]) | herbicidal effect (weed suppression rate), Echinochloa crus-galli (Echinochloa crus-galli [15])

CC(C)N(C(=O)n1ncn(S(=O)(=O)C2CCCCC2)c1=O)c1cccc(F)c1F [Compound 1-305]
80%: herbicidal effect (weed suppression rate), Amaranthus viridis (Amaranthus viridis [9]) | herbicidal effect (weed suppression rate), Chenopodium album (Chenopodium album [10]) | herbicidal effect (weed suppression rate), Amaranthus viridis (Amaranthus viridis [13]) | herbicidal effect (weed suppression rate), Chenopodium album (Chenopodium album [14])
90%: herbicidal effect (weed suppression rate), Echinochloa crus-galli (Echinochloa crus-galli [15])
100%: weed suppression rate, Echinochloa crus-galli (Echinochloa crus-galli [1]) | weed suppression rate, Lindemia pyxidaria (Lindernia pyxidaria [2]) | weed suppression rate, Monochoria vaginalis (Monochoria vaginalis [3]) | weed suppression rate, Scirpus juncoides (Scirpus juncoides [4]) | weed suppression rate, Echinochloa crus-galli (Echinochloa crus-galli [5]) | weed suppression rate, Lindemia pyxidaria (Lindernia pyxidaria [6]) | weed suppression rate, Monochoria vaginalis (Monochoria vaginalis [7]) | weed suppression rate, Scirpus juncoides (Scirpus juncoides [8]) | herbicidal effect (weed suppression rate), Echinochloa crus-galli (Echinochloa crus-galli [11]) | herbicidal effect (weed suppression rate), Crabgrass (crabgrass [12]) | herbicidal effect (weed suppression rate), Crabgrass (crabgrass [16])

CC(C)N(C(=O)n1ncn(S(=O)(=O)C2CC2)c1=O)c1ccc(F)cc1 [Compound 1-171]
80%: herbicidal effect (weed suppression rate), Chenopodium album (Chenopodium album [14]) | herbicidal effect (weed suppression rate), Echinochloa crus-galli (Echinochloa crus-galli [15])
100%: weed suppression rate, Echinochloa crus-galli (Echinochloa crus-galli [1]) | weed suppression rate, Lindemia pyxidaria (Lindernia pyxidaria [2]) | weed suppression rate, Monochoria vaginalis (Monochoria vaginalis [3]) | weed suppression rate, Scirpus juncoides (Scirpus juncoides [4]) | weed suppression rate, Echinochloa crus-galli (Echinochloa crus-galli [5]) | herbicidal effect (weed suppression rate), Chenopodium album (Chenopodium album [10]) | herbicidal effect (weed suppression rate), Echinochloa crus-galli (Echinochloa crus-galli [11]) | herbicidal effect (weed suppression rate), Crabgrass (crabgrass [12])
90%: weed suppression rate, Lindemia pyxidaria (Lindernia pyxidaria [6]) | weed suppression rate, Monochoria vaginalis (Monochoria vaginalis [7]) | weed suppression rate, Scirpus juncoides (Scirpus juncoides [8]) | herbicidal effect (weed suppression rate), Amaranthus viridis (Amaranthus viridis [9]) | herbicidal effect (weed suppression rate), Amaranthus viridis (Amaranthus viridis [13]) | herbicidal effect (weed suppression rate), Crabgrass (crabgrass [16])

Cc1ccc(N(C(=O)n2ncn(S(=O)(=O)N(C)C)c2=O)C(C)C)c(F)c1 [Compound 1-1117]
80%: weed suppression rate, Lindemia pyxidaria (Lindernia pyxidaria [2]) | weed suppression rate, Monochoria vaginalis (Monochoria vaginalis [3]) | weed suppression rate, Lindemia pyxidaria (Lindernia pyxidaria [6]) | weed suppression rate, Monochoria vaginalis (Monochoria vaginalis [7]) | herbicidal effect (weed suppression rate), Chenopodium album (Chenopodium album [10]) | herbicidal effect (weed suppression rate), Echinochloa crus-galli (Echinochloa crus-galli [11]) | herbicidal effect (weed suppression rate), Chenopodium album (Chenopodium album [14]) | herbicidal effect (weed suppression rate), Echinochloa crus-galli (Echinochloa crus-galli [15])
90%: weed suppression rate, Echinochloa crus-galli (Echinochloa crus-galli [1]) | weed suppression rate, Scirpus juncoides (Scirpus juncoides [4]) | weed suppression rate, Echinochloa crus-galli (Echinochloa crus-galli [5]) | weed suppression rate, Scirpus juncoides (Scirpus juncoides [8]) | herbicidal effect (weed suppression rate), Amaranthus viridis (Amaranthus viridis [9]) | herbicidal effect (weed suppression rate), Crabgrass (crabgrass [12]) | herbicidal effect (weed suppression rate), Amaranthus viridis (Amaranthus viridis [13]) | herbicidal effect (weed suppression rate), Crabgrass (crabgrass [16])

CC(C)N(C(=O)n1ncn(S(=O)(=O)C2CCC2)c1=O)c1ccc(F)cc1F [Compound 1-269]
90%: weed suppression rate, Scirpus juncoides (Scirpus juncoides [4]) | weed suppression rate, Monochoria vaginalis (Monochoria vaginalis [7]) | weed suppression rate, Scirpus juncoides (Scirpus juncoides [8]) | herbicidal effect (weed suppression rate), Amaranthus viridis (Amaranthus viridis [9]) | herbicidal effect (weed suppression rate), Chenopodium album (Chenopodium album [10]) | herbicidal effect (weed suppression rate), Echinochloa crus-galli (Echinochloa crus-galli [11]) | herbicidal effect (weed suppression rate), Crabgrass (crabgrass [12]) | herbicidal effect (weed suppression rate), Amaranthus viridis (Amaranthus viridis [13]) | herbicidal effect (weed suppression rate), Crabgrass (crabgrass [16])
100%: weed suppression rate, Echinochloa crus-galli (Echinochloa crus-galli [1]) | weed suppression rate, Lindemia pyxidaria (Lindernia pyxidaria [2]) | weed suppression rate, Monochoria vaginalis (Monochoria vaginalis [3]) | weed suppression rate, Echinochloa crus-galli (Echinochloa crus-galli [5]) | weed suppression rate, Lindemia pyxidaria (Lindernia pyxidaria [6])
80%: herbicidal effect (weed suppression rate), Chenopodium album (Chenopodium album [14]) | herbicidal effect (weed suppression rate), Echinochloa crus-galli (Echinochloa crus-galli [15])

CC(C)N(C(=O)n1ncn(S(=O)(=O)C(C)C)c1=O)c1ccc(F)cc1F [Compound 1-65]
90%: weed suppression rate, Lindemia pyxidaria (Lindernia pyxidaria [6]) | weed suppression rate, Monochoria vaginalis (Monochoria vaginalis [7]) | weed suppression rate, Scirpus juncoides (Scirpus juncoides [8]) | herbicidal effect (weed suppression rate), Chenopodium album (Chenopodium album [10]) | herbicidal effect (weed suppression rate), Amaranthus viridis (Amaranthus viridis [13]) | herbicidal effect (weed suppression rate), Crabgrass (crabgrass [16])
80%: herbicidal effect (weed suppression rate), Amaranthus viridis (Amaranthus viridis [9]) | herbicidal effect (weed suppression rate), Chenopodium album (Chenopodium album [14]) | herbicidal effect (weed suppression rate), Echinochloa crus-galli (Echinochloa crus-galli [15])
100%: weed suppression rate, Echinochloa crus-galli (Echinochloa crus-galli [1]) | weed suppression rate, Lindemia pyxidaria (Lindernia pyxidaria [2]) | weed suppression rate, Monochoria vaginalis (Monochoria vaginalis [3]) | weed suppression rate, Scirpus juncoides (Scirpus juncoides [4]) | weed suppression rate, Echinochloa crus-galli (Echinochloa crus-galli [5]) | herbicidal effect (weed suppression rate), Echinochloa crus-galli (Echinochloa crus-galli [11]) | herbicidal effect (weed suppression rate), Crabgrass (crabgrass [12])

CC(C)N(C(=O)n1ncn(S(=O)(=O)C2CCCCC2)c1=O)c1ccc(Cl)cc1Br [Compound 1-318]
100%: weed suppression rate, Echinochloa crus-galli (Echinochloa crus-galli [1]) | weed suppression rate, Scirpus juncoides (Scirpus juncoides [4]) | weed suppression rate, Echinochloa crus-galli (Echinochloa crus-galli [5]) | herbicidal effect (weed suppression rate), Echinochloa crus-galli (Echinochloa crus-galli [11]) | herbicidal effect (weed suppression rate), Crabgrass (crabgrass [12])
90%: weed suppression rate, Lindemia pyxidaria (Lindernia pyxidaria [2]) | weed suppression rate, Monochoria vaginalis (Monochoria vaginalis [3])
50%: herbicidal effect (weed suppression rate), Amaranthus viridis (Amaranthus viridis [9]) | herbicidal effect (weed suppression rate), Chenopodium album (Chenopodium album [10])
60%: herbicidal effect (weed suppression rate), Amaranthus viridis (Amaranthus viridis [13]) | herbicidal effect (weed suppression rate), Chenopodium album (Chenopodium album [14])
80%: weed suppression rate, Lindemia pyxidaria (Lindernia pyxidaria [6]) | weed suppression rate, Monochoria vaginalis (Monochoria vaginalis [7]) | weed suppression rate, Scirpus juncoides (Scirpus juncoides [8]) | herbicidal effect (weed suppression rate), Echinochloa crus-galli (Echinochloa crus-galli [15]) | herbicidal effect (weed suppression rate), Crabgrass (crabgrass [16])

CC(C)N(C(=O)n1ncn(S(=O)(=O)C2CCCCC2)c1=O)c1ccc(F)cc1 [Compound 1-298]
90%: weed suppression rate, Echinochloa crus-galli (Echinochloa crus-galli [1]) | weed suppression rate, Lindemia pyxidaria (Lindernia pyxidaria [2]) | weed suppression rate, Scirpus juncoides (Scirpus juncoides [4]) | weed suppression rate, Echinochloa crus-galli (Echinochloa crus-galli [5]) | weed suppression rate, Lindemia pyxidaria (Lindernia pyxidaria [6]) | weed suppression rate, Monochoria vaginalis (Monochoria vaginalis [7]) | weed suppression rate, Scirpus juncoides (Scirpus juncoides [8]) | herbicidal effect (weed suppression rate), Amaranthus viridis (Amaranthus viridis [9]) | herbicidal effect (weed suppression rate), Crabgrass (crabgrass [12]) | herbicidal effect (weed suppression rate), Amaranthus viridis (Amaranthus viridis [13]) | herbicidal effect (weed suppression rate), Crabgrass (crabgrass [16])
80%: weed suppression rate, Monochoria vaginalis (Monochoria vaginalis [3]) | herbicidal effect (weed suppression rate), Chenopodium album (Chenopodium album [10]) | herbicidal effect (weed suppression rate), Echinochloa crus-galli (Echinochloa crus-galli [11]) | herbicidal effect (weed suppression rate), Chenopodium album (Chenopodium album [14]) | herbicidal effect (weed suppression rate), Echinochloa crus-galli (Echinochloa crus-galli [15])
